# Test results reported in US20260034130A1 (priority 2022, published 2026).
# Read-outs that look alike come from different tables or passages of the source.
# Tests used:
# [1] = tested on: patients with acute ischemic stroke or high-risk TIA; experiment: AXIOMATIC-SSP clinical (symptomatic) ischemic stroke and undetermined stroke events, all randomized participants; format: in vivo, human
# Experimental: The primary efficacy endpoint was the composite of incident ischemic stroke during the treatment period or new covert brain infarction detected by the comparison of 90-day and baseline MRIs. All images were read independently by 2 blinded neuroradiologists, and disagreements were resolved by consensus. […] Clinically overt strokes were determined by site investigators following standardized definitions. Briefly, to qualify as an outcome event, a clinical diagnosis of stroke required a sustained increase in the NIHSS score of ≥3 points that was not explained by other factors, such as infection, or was confirmed by imaging as a new infarct. Covert brain infarction is defined as small ischemic cerebral lesions that are detected on Day 90 MRI in the absence of a symptomatic ischemic stroke event. […]
# [2] = tested on: patients with acute ischemic stroke or high-risk TIA
# Text: As used herein, the “Bleeding Academic Research Consortium (BARC) Type 3 criteria” are: a. Overt bleeding plus hemoglobin drop of 3 to <5 g/dL (provided hemoglobin drop is related to bleed); transfusion with overt bleeding; b. Overt bleeding plus hemoglobin drop ≥5 g/dL (provided hemoglobin drop is related to bleed); cardiac tamponade; bleeding requiring surgical intervention for control; bleeding requiring IV vasoactive agents; or c. Intracranial hemorrhage confirmed by autopsy, imaging, or lumbar puncture; intraocular bleed compromising vision. See, e.g., Roxana Mehran, et al. Standardized Bleeding Definitions for Cardiovascular Clinical Trials, Circulation.
# As used herein, the “Bleeding Academic Research Consortium (BARC) Type 5 criteria” are: a. Probable fatal bleeding; or b. Definite fatal bleeding (overt or autopsy or imaging confirmation). See, e.g., Roxana Mehran, et al. Standardized Bleeding Definitions for Cardiovascular Clinical Trials, Circulation.
# As used herein, the “Bleeding Academic Research Consortium (BARC) Type 2 criteria” are: any clinically overt sign of hemorrhage that “is actionable” and requires diagnostic studies, hospitalization, or treatment by a health care professional. See, e.g., Roxana Mehran, et al. Standardized Bleeding Definitions for Cardiovascular Clinical Trials, Circulation.
# The secondary endpoint of major bleeding was determined by the occurrence of types 3 and 5 bleeding, according to the Bleeding Academic Research Consortium (BARC) classification system. Roxana Mehran, et al. Standardized Bleeding Definitions for Cardiovascular Clinical Trials, Circulation. […] Bleeding was additionally evaluated utilizing International Society on Thrombosis and Haemostasis (ISTH) and PLATelet inhibition and patient Outcomes (PLATO) criteria.
# The population for safety analysis includes all participants who received at least one dose of study medication. This is the primary population used in safety analysis and is analyzed according to the treatment assigned at randomization.
# Analysis of all safety data will be performed on participants treated with ≥1 dose of double-blind drug. The proportion of participants with major bleeding events (BARC types 3 and 5), as well as BARC-, ISTH-, and PLATO-defined criteria, will be summarized by treatment group. Additional summaries will include characteristics of cerebral microbleeds, hemorrhagic transformation of ischemic stroke, and asymptomatic intracranial bleeding. Adverse event and laboratory data, as well as PK and PD data, will be summarized.
# [3] = tested on: patients with acute ischemic stroke or high-risk TIA; experiment: AXIOMATIC-SSP vascular territory of incident infarcts at Day 90 compared with baseline; format: in vivo, human
# Text: At baseline, recent ischemic lesions were detected and quantified using the DWI sequence. Incident infarcts (defined as new imaging lesions compared to the baseline MRI which may be associated with a symptomatic ischemic stroke or be covert in nature) were detected at Day 90 on the FLAIR sequence and categorized as DWI positive or DWI negative based on whether they could also be detected on the DWI sequence. DWI positive lesions at Day 90 were likely associated with infarctions occurring late during the follow-up period (approximately from Day 30 to Day 90) while DWI negative lesions were more likely related to earlier infarctions (approximately occurring by Day 30). The vascular territory of incident infarcts was also assessed at Day 90.
# [4] = tested on: patients undergoing TKR (total knee replacement); details: 25 mg twice daily; cited from earlier work
structure (smiles),measurement,setting,value
"C[C@@H]1CCC[C@H](n2cnc(-c3cc(Cl)ccc3-n3cc(Cl)nn3)cc2=O)c2cc(ccn2)-c2c(cnn2C(F)F)NC1=O [milvexian, (5R,9S)-9-(4-(5-chloro-2-(4-chloro-1H-1,2,3-triazol-1-yl)phenyl)-6-oxopyrimidin-1(6H)-yl)-21-(difluoromethyl)-5-methyl-21H-3-aza-1(4,2)-pyridina-2(5,4)-pyrazolacyclonaphan-4-one]",Subjects With Hemorragic Stroke n,"[1]; 25 mg BID, N = 318",0
same,"Subjects With Hemorragic Stroke, Incidence Rate (n/N %)","[1]; 25 mg BID, N = 318",(0) %
same,"Subjects With Undetermined Stroke, Incidence Rate (n/N %)","[1]; 25 mg BID, N = 318",(0) %
same,"Symptomatic Stroke Events: Subjects With Event, Incidence Rate (n/N %)","[1]; 25 mg BID, N = 318",(3.8) %
same,Subjects With Hemorragic Stroke n,"[1]; 25 mg QD, N = 328",0
same,"Subjects With Hemorragic Stroke, Incidence Rate (n/N %)","[1]; 25 mg QD, N = 328",(0) %
same,Subjects With Ischemic Stroke n,"[1]; 25 mg QD, N = 328",15
same,"Subjects With Undetermined Stroke, Incidence Rate (n/N %)","[1]; 25 mg QD, N = 328",(0) %
same,Symptomatic Stroke Events: Subjects With Event n,"[1]; 25 mg QD, N = 328",15
same,"Symptomatic Stroke Events: Subjects With Event, Incidence Rate (n/N %)","[1]; 25 mg QD, N = 328",(4.6) %
same,HR for preventing clinical ischemic strokes vs placebo,"[1]; 25 mg twice daily, 95% CI 0.36-1.30",0.69
same,Subjects With Hemorragic Stroke n,"[1]; 50 mg BID, N = 328",0
same,"Subjects With Hemorragic Stroke, Incidence Rate (n/N %)","[1]; 50 mg BID, N = 328",(0) %
same,"Subjects With Undetermined Stroke, Incidence Rate (n/N %)","[1]; 50 mg BID, N = 328",(0) %
same,"Symptomatic Stroke Events: Subjects With Event, Incidence Rate (n/N %)","[1]; 50 mg BID, N = 328",(4.0) %
same,Subjects With Hemorragic Stroke n,"[1]; 100 mg BID, N = 310",0
same,"Subjects With Hemorragic Stroke, Incidence Rate (n/N %)","[1]; 100 mg BID, N = 310",(0) %
same,"Subjects With Undetermined Stroke, Incidence Rate (n/N %)","[1]; 100 mg BID, N = 310",(0) %
same,"Symptomatic Stroke Events: Subjects With Event, Incidence Rate (n/N %)","[1]; 100 mg BID, N = 310",(3.5) %
same,Subjects With Hemorragic Stroke n,"[1]; 200 mg BID, N = 351",0
same,"Subjects With Hemorragic Stroke, Incidence Rate (n/N %)","[1]; 200 mg BID, N = 351",(0) %
same,"Subjects With Undetermined Stroke, Incidence Rate (n/N %)","[1]; 200 mg BID, N = 351",(0) %
same,"Symptomatic Stroke Events: Subjects With Event, Incidence Rate (n/N %)","[1]; 200 mg BID, N = 351",(7.7) %
same,"time point for apparent onset of the clinical benefit vs placebo (Kaplan-Meier, time to ischemic stroke)",[1]; pooled doses of milvexian,about 10 days
same,"BARC Type 5 (fatal) bleeding, subjects n","[2]; 25 mg BID, N = 313",0
same,"BARC Type 5 bleeding, Incidence Rate (n/N %)","[2]; 25 mg BID, N = 313",(0) %
same,"BARC Type 5 (fatal) bleeding, subjects n","[2]; 25 mg QD, N = 325",0
same,"BARC Type 5 bleeding, Incidence Rate (n/N %)","[2]; 25 mg QD, N = 325",(0) %
same,"BARC Type 5 (fatal) bleeding, subjects n","[2]; 50 mg BID, N = 325",0
same,"BARC Type 5 bleeding, Incidence Rate (n/N %)","[2]; 50 mg BID, N = 325",(0) %
same,"BARC Type 5 (fatal) bleeding, subjects n","[2]; 100 mg BID, N = 306",0
same,"BARC Type 5 bleeding, Incidence Rate (n/N %)","[2]; 100 mg BID, N = 306",(0) %
same,"BARC Type 5 (fatal) bleeding, subjects n","[2]; 200 mg BID, N = 344",0
same,"BARC Type 5 bleeding, Incidence Rate (n/N %)","[2]; 200 mg BID, N = 344",(0) %
same,fatal bleeding,[2]; all treatment arms,No fatal bleeding
same,incidence rate (n/N %) of bleeding endpoint (BARC Type 3 and 5),"[2]; human, in vivo, 90 days",0.6-1.6%
same,"Incident infarcts at Day 90 by vascular territory: subjects (percent, in parentheses)","[3]; ACA, 25 BID, N = 285",(1.1)
same,"Incident infarcts at Day 90 by vascular territory: subjects (percent, in parentheses)","[3]; ACA, 25 QD, N = 305",(0.3)
same,"Incident infarcts at Day 90 by vascular territory: subjects (percent, in parentheses)","[3]; ACA, 50 BID, N = 306",(1.3)
same,"Incident infarcts at Day 90 by vascular territory: subjects (percent, in parentheses)","[3]; AChA, 50 BID, N = 306",(0.3)
same,"Incident infarcts at Day 90 by vascular territory: subjects (percent, in parentheses)","[3]; AChA, 100 BID, N = 275",(0.4)
same,"Incident infarcts at Day 90 by vascular territory: subjects (percent, in parentheses)","[3]; AChA, 200 BID, N = 311",(0.4)
same,"Incident infarcts at Day 90 by vascular territory: subjects (percent, in parentheses)","[3]; BASILAR - MIDBRAIN, 25 QD, N = 305",(0.3)
same,"Incident infarcts at Day 90 by vascular territory: subjects (percent, in parentheses)","[3]; BASILAR - PONS, 50 BID, N = 306",(0.3)
same,"Incident infarcts at Day 90 by vascular territory: subjects (percent, in parentheses)","[3]; BASILAR - THALAMUS, 25 BID, N = 285",(0.7)
same,"Incident infarcts at Day 90 by vascular territory: subjects (percent, in parentheses)","[3]; BASILAR - THALAMUS, 25 QD, N = 305",(0.3)
same,"Incident infarcts at Day 90 by vascular territory: subjects (percent, in parentheses)","[3]; BASILAR - THALAMUS, 50 BID, N = 306",(0.3)
same,"Incident infarcts at Day 90 by vascular territory: subjects (percent, in parentheses)","[3]; LENTICULO-STRIATE ARTERIES, 25 BID, N = 285",(2.1)
same,"Incident infarcts at Day 90 by vascular territory: subjects (percent, in parentheses)","[3]; LENTICULO-STRIATE ARTERIES, 25 QD, N = 305",(2.0)
same,"Incident infarcts at Day 90 by vascular territory: subjects (percent, in parentheses)","[3]; LENTICULO-STRIATE ARTERIES, 50 BID, N = 306",(1.3)
same,"Incident infarcts at Day 90 by vascular territory: subjects (percent, in parentheses)","[3]; LENTICULO-STRIATE ARTERIES, 100 BID, N = 275",(1.5)
same,"Incident infarcts at Day 90 by vascular territory: subjects (percent, in parentheses)","[3]; LENTICULO-STRIATE ARTERIES, 200 BID, N = 311",(1.5)
same,"Incident infarcts at Day 90 by vascular territory: subjects (percent, in parentheses)","[3]; MCA, 25 BID, N = 285",(4.9)
same,"Incident infarcts at Day 90 by vascular territory: subjects (percent, in parentheses)","[3]; MCA, 25 QD, N = 305",(4.9)
same,"Incident infarcts at Day 90 by vascular territory: subjects (percent, in parentheses)","[3]; MCA, 50 BID, N = 306",(4.2)
same,"Incident infarcts at Day 90 by vascular territory: subjects (percent, in parentheses)","[3]; MCA, 100 BID, N = 275",(4.7)
same,"Incident infarcts at Day 90 by vascular territory: subjects (percent, in parentheses)","[3]; MCA, 200 BID, N = 311",(4.7)
same,"Incident infarcts at Day 90 by vascular territory: subjects (percent, in parentheses)","[3]; PCA, 25 BID, N = 285",(1.4)
same,"Incident infarcts at Day 90 by vascular territory: subjects (percent, in parentheses)","[3]; PCA, 25 QD, N = 305",(2.6)
same,"Incident infarcts at Day 90 by vascular territory: subjects (percent, in parentheses)","[3]; PCA, 50 BID, N = 306",(2.0)
same,"Incident infarcts at Day 90 by vascular territory: subjects (percent, in parentheses)","[3]; PCA, 100 BID, N = 275",(2.5)
same,"Incident infarcts at Day 90 by vascular territory: subjects (percent, in parentheses)","[3]; PCA, 200 BID, N = 311",(2.5)
same,"Incident infarcts at Day 90 by vascular territory: subjects (percent, in parentheses)","[3]; PICA, 25 BID, N = 285",(1.1)
same,"Incident infarcts at Day 90 by vascular territory: subjects (percent, in parentheses)","[3]; PICA, 25 QD, N = 305",(0.3)
same,"Incident infarcts at Day 90 by vascular territory: subjects (percent, in parentheses)","[3]; PICA, 100 BID, N = 275",(1.1)
same,"Incident infarcts at Day 90 by vascular territory: subjects (percent, in parentheses)","[3]; PICA, 200 BID, N = 311",(1.1)
same,"Incident infarcts at Day 90 by vascular territory: subjects (percent, in parentheses)","[3]; SCA, 25 BID, N = 285",(0.7)
same,"Incident infarcts at Day 90 by vascular territory: subjects (percent, in parentheses)","[3]; SCA, 25 QD, N = 305",(0.7)
same,"Incident infarcts at Day 90 by vascular territory: subjects (percent, in parentheses)","[3]; SCA, 100 BID, N = 275",(0.4)
same,"Incident infarcts at Day 90 by vascular territory: subjects (percent, in parentheses)","[3]; SCA, 200 BID, N = 311",(0.4)
same,efficacy versus enoxaparin in AXIOMATIC-TKR,[4],comparable efficacy to enoxaparin
